Results on 16 compounds are retold here after US20200031778A1, “NOVEL 5-SUBSTITUTED IMIDAZOLYLMETHYL DERIVATIVES” (Bayer CropScience Aktiengesellschaft, priority 2016, published 2020).

For data set [1], the system named is Septoria tritici. In words: Example C: in vivo preventive test on Septoria tritici (leaf spot on wheat). The conditions noted are these: Zymoseptoria tritici, 576 h; 500 ppm of active ingredient; wheat plants, preventive spray; evaluated 24 days after inoculation; read-out: efficacy. On the procedure: Example C: In Vivo Preventive Test on Septoria Tritici (Leaf Spot on Wheat)
(§1) The active ingredients were made soluble and homogenized in a mixture of Dimethyl sulfoxide/Acetone/Tween® 80 and then diluted in water to the desired concentration.
(§2) The young plants of wheat were treated by spraying the active ingredient prepared as described above. Control plants were treated only with an aqueous solution of Acetone/Dimethyl sulfoxide/Tween® 80.
After 24 hours, the plants were contaminated by spraying the leaves with an aqueous suspension of Septoria tritici spores. The contaminated wheat plants were incubated for 72 hours at 18° C. and at 100% relative humidity and then for 21 days at 20° C. and at 90% relative humidity.
The test was evaluated 24 days after the inoculation. 0% means an efficacy which corresponds to that of the control plants while an efficacy of 100% means that no disease was observed.

The nature of data set [2]: Log P by HPLC on reversed phase columns (EEC directive 79/831 Annex V.A8; methods [a], [b], [c]). The format is physicochemical. The procedure, abridged: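 Reversed-phase HPLC with LC-UV detection, 10→95% acetonitrile linear gradient; aqueous eluent 0.1% formic acid [a], 0.001 M ammonium acetate, neutral [b], or 0.1% phosphoric acid [c]. Calibrated against C3–C16 alkan-2-ones of known Log P by retention-time linear interpolation; multiple values within a method separated by "+".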

The subject of data set [3] is Puccinia recondita. In words: Example B: in vivo preventive test on Puccinia recondita (brown rust on wheat). The note with it: 264 h, 500 ppm of active ingredient, wheat plants, preventive spray, evaluated 11 days after inoculation, read-out: efficacy. On the procedure:
Example B: In Vivo Preventive Test on Puccinia Recondita (Brown Rust on Wheat)
as §1, §2
After 24 hours, the plants were contaminated by spraying the leaves with an aqueous suspension of Puccinia recondita spores. The contaminated wheat plants were incubated for 24 hours at 20° C. and at 100% relative humidity and then for 10 days at 20° C. and at 70-80% relative humidity.
(§3) The test was evaluated 11 days after the inoculation. 0% means an efficacy which corresponds to that of the control plants while an efficacy of 100% means that no disease was observed.

Data set [4] deals with Uromyces appendiculatus. The data set is described as follows: Example E: in vivo preventive test on Uromyces appendiculatus (bean rust). The conditions noted are these: 264 h, 500 ppm of active ingredient, bean plants, preventive spray, evaluated 11 days after inoculation, read-out: efficacy. On the procedure: Example E: In Vivo Preventive Test on Uromyces Appendiculatus (Bean Rust)
as §1
The young plants of bean were treated by spraying the active ingredient prepared as described above. Control plants were treated only with an aqueous solution of Acetone/Dimethyl sulfoxide/Tween® 80.
After 24 hours, the plants were contaminated by spraying the leaves with an aqueous suspension of Uromyces appendiculatus spores. The contaminated bean plants were incubated for 24 hours at 20° C. and at 100% relative humidity and then for 10 days at 20° C. and at 70-80% relative humidity.
as §3

Data set [5] concerns Sphaerotheca fuliginea. In words: Example D: in vivo preventive test on Sphaerotheca fuliginea (powdery mildew on cucurbits). The note with it: Podosphaera fuliginea, 360 h, read-out: efficacy. The protocol:
Example D: In Vivo Preventive Test on Sphaerotheca Fuliginea (Powdery Mildew on Cucurbits)
as §1
The young plants of gherkin were treated by spraying the active ingredient prepared as described above. Control plants were treated only with an aqueous solution of Acetone/Dimethyl sulfoxide/Tween® 80.
After 24 hours, the plants were contaminated by spraying the leaves with an aqueous suspension of Sphaerotheca fuliginea spores. The contaminated gherkin plants were incubated for 72 hours at 18° C. and at 100% relative humidity and then for 12 days at 20° C. and at 70-80% relative humidity.
The test was evaluated 15 days after the inoculation. 0% means an efficacy which corresponds to that of the control plants while an efficacy of 100% means that no disease was observed.

For data set [6], the system named is Puccinia recondita. In words: Example IX-A: in vivo preventive test on Puccinia recondita (brown rust on wheat). The note with it: 264 h, compounds of formula IX, 500 ppm of active ingredient, wheat plants, preventive spray, evaluated 11 days after inoculation, read-out: efficacy. The procedure, abridged:
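Young wheat plants sprayed with compound in DMSO/acetone/Tween 80 diluted in water, inoculated 24 h later with spore suspension. Incubated 24 h at 20 °C, 100% RH, then 10 days at 20 °C, 70-80% RH. Efficacy scored 11 days post-inoculation, 0% equal to solvent-treated controls, 100% no disease.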

The subject of data set [7] is Septoria tritici. The data set is described as follows: Example IX-B: in vivo preventive test on Septoria tritici (leaf spot on wheat). The conditions noted are these: Zymoseptoria tritici, 576 h; compounds of formula IX; 500 ppm of active ingredient; wheat plants, preventive spray; evaluated 24 days after inoculation; read-out: efficacy. An outline of the steps: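 Wheat seedlings sprayed preventively with compound dissolved in DMSO/acetone/Tween 80 and diluted in water; solvent-only controls. Spore suspension of S. tritici sprayed 24 h later; 72 h at 18 °C/100% RH, then 21 days at 20 °C/90% RH. Efficacy scored 24 days post-inoculation, 0% = control, 100% = no disease.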

In data set [8] the test system is Uromyces appendiculatus. The data set is described as follows: Example IX-D: in vivo preventive test on Uromyces appendiculatus (bean rust). The conditions noted are these: 264 h, compounds of formula IX, 500 ppm of active ingredient, bean plants, preventive spray, evaluated 11 days after inoculation, read-out: efficacy. The procedure, abridged:
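Young bean plants sprayed with compound (DMSO/acetone/Tween 80 in water), then inoculated 24 h later with Uromyces appendiculatus spores. Kept 24 h at 20° C, 100% RH, then 10 days at 20° C, 70–80% RH; efficacy scored 11 days post-inoculation, 0% = untreated control, 100% = no disease.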

For data set [9], the system named is Sphaerotheca fuliginea. The data set is described as follows: Example IX-C: in vivo preventive test on Sphaerotheca fuliginea (powdery mildew on cucurbits). The conditions noted are these: Podosphaera fuliginea, 360 h; compounds of formula IX; 500 ppm of active ingredient; gherkin plants, preventive spray; evaluated 15 days after inoculation; read-out: efficacy. An outline of the steps: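 Young gherkin plants sprayed with compound in DMSO/acetone/Tween 80 diluted in water, then inoculated 24 h later with Sphaerotheca fuliginea spores. Kept 72 h at 18 °C/100% RH, then 12 days at 20 °C/70-80% RH; efficacy scored 15 days post-inoculation, 0% = control, 100% = no disease.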

The mark [10] stands for this setting: reversed phase HPLC column, HPLC on reversed phase columns, method [a].
The mark [11] stands for this setting: 500 ppm of active ingredient, gherkin plants, preventive spray, evaluated 15 days after inoculation.
Setting [12] is: reversed phase HPLC column, method [a]: LC-UV, acidic range, 0.1% formic acid in water and acetonitrile as eluent (linear gradient from 10% to 95% acetonitrile).

For orientation: chromatographic logP means a lipophilicity value derived from retention on a column. Read a low chromatographic logP as lower lipophilicity. For the compound `N#Cc1cncn1CC(O)c1ccc(Oc2ccc(Br)cc2)cc1Cl` (centres unmarked) [I-40, 3-[2-[4-(4-bromophenoxy)-2-chloro-phenyl]-2-hydroxy-ethyl]imidazole-4-carbonitrile], the pest or weed control at 500 ppm with Septoria tritici [1] was in the range of 80 to 89%; in the data set with Puccinia recondita [3] it was 90 to 100%; with Uromyces appendiculatus [4] it was 90 to 100%; in the data set with Sphaerotheca fuliginea [5] (setting [11]) it was 90 to 100%. In [2] (setting [10]), this compound yielded a chromatographic logP of 3.31.
`N#Cc1cncn1CC(O)(C#CC1CCCCC1)C1(Cl)CC1` (centres unmarked) [I-542, 1-[2-(1-chlorocyclopropyl)-4-cyclohexyl-2-hydroxybut-3-yn-1-yl]-1H-imidazole-5-carbonitrile] had a chromatographic logP in data set [2] (HPLC on reversed phase column, method [a]) of 2.96. Further, the pest or weed control at 500 ppm in the data set with Sphaerotheca fuliginea [5] lay within 80 to 89%.
For `CCCCC(O)(Cn1cncc1C#N)c1ccc(Cl)cc1` (centres unmarked) [I-256, 3-[2-(4-chlorophenyl)-2-hydroxy-hexyl]imidazole-4-carbonitrile], the pest or weed control at 500 ppm in the data set with Septoria tritici [1] lay in the range of 80 to 89%; in the data set with Puccinia recondita [3], 80 to 89%; in the data set with Uromyces appendiculatus [4], 90 to 100%; in the data set with Sphaerotheca fuliginea [5] (setting [11]), 90 to 100%. The same compound registered a chromatographic logP in data set [2] (setting [10]) of 2.86.
Regarding `COC(Cn1cncc1F)c1cnc(Oc2ccc(Cl)cc2)cc1C(F)(F)F` (centres unmarked) [I-131, 2-(4-chlorophenoxy)-5-[2-(5-fluoroimidazol-1-yl)-1-methoxy-ethyl]-4-(trifluoromethyl)pyridine], the pest or weed control at 500 ppm in the data set with Septoria tritici [1], in the data set on Puccinia recondita [3] and in the data set on Sphaerotheca fuliginea [5] (setting [11]) was 90 to 100% throughout. Further, the chromatographic logP in [2] (setting [10]) was found to be 2.82.
`CCC(O)(Cn1cncc1C#N)c1ccc(F)cc1` (centres unmarked) [I-245, 3-[2-(4-fluorophenyl)-2-hydroxy-butyl]imidazole-4-carbonitrile]: the pest or weed control at 500 ppm in the data set on Septoria tritici [1] and in the data set on Sphaerotheca fuliginea [5] (setting [11]) was 90 to 100% throughout. Besides, in data set [2] (setting [10]), the chromatographic logP was found to be 1.57.
For `CC(=O)OC(Cn1cncc1F)c1cnc(Oc2ccc(Cl)cc2)cc1C(F)(F)F` (centres unmarked) [I-133, [1-[6-(4-chlorophenoxy)-4-(trifluoromethyl)-3-pyridyl]-2-(5-fluoroimidazol-1-yl)ethyl]acetate], the pest or weed control at 500 ppm with Septoria tritici [1], with Puccinia recondita [3], with Uromyces appendiculatus [4] and in the data set with Sphaerotheca fuliginea [5] (setting [11]) was 90 to 100% in each case.
As for `C[Si](C)(C)C#Cc1ccc(C(O)(Cn2cncc2C#N)C2(F)CC2)c(Cl)c1` (centres unmarked) [I-394, 3-[2-[2-chloro-4-(2-trimethylsilylethynyl)phenyl]-2-(1-fluorocyclopropyl)-2-hydroxy-ethyl]imidazole-4-carbonitrile], the pest or weed control at 500 ppm in the data set on Septoria tritici [1] and with Sphaerotheca fuliginea [5] (setting [11]) was 90 to 100% throughout. Besides, in data set [2] (HPLC on reversed phase columns, method [a]), the chromatographic logP worked out at 4.06.
In turn, `O=C(Cn1cncc1Cl)c1ccc(Oc2ccc(Br)cc2)cc1Cl` [IX-15, 1-[4-(4-bromophenoxy)-2-chloro-phenyl]-2-(5-chloroimidazol-1-yl)ethanone] yielded a chromatographic logP in [2] (setting [12]) of 3.13. Also, the pest or weed control at 500 ppm in the data set on Puccinia recondita [6], in the data set on Septoria tritici [7], in the data set on Uromyces appendiculatus [8] and with Sphaerotheca fuliginea [9] was 90 to 100% throughout.
`O=C(Cn1cncc1F)c1ccc(Oc2ccc(Cl)cc2)cc1C(F)(F)F` [IX-83] showed a chromatographic logP in [2] (setting [12]) of 2.88. Further, the pest or weed control at 500 ppm in the data set on Puccinia recondita [6] lay in the range of 80 to 89%; in the data set on Septoria tritici [7], 90 to 100%; in the data set on Uromyces appendiculatus [8], 90 to 100%; in the data set on Sphaerotheca fuliginea [9], 80 to 89%.
In data set [2] (setting [12]), `O=C(Cn1cncc1Cl)c1cnc(Oc2ccc(Cl)cc2)cc1C(F)(F)F` [IX-43] registered a chromatographic logP of 3.09. The pest or weed control at 500 ppm in the data set with Puccinia recondita [6] was 80 to 89%; in the data set on Septoria tritici [7] it was 90 to 100%; in the data set on Uromyces appendiculatus [8] it was 90 to 100%; in the data set on Sphaerotheca fuliginea [9], 90 to 100%.
Compound `O=C(Cn1cncc1Cl)c1ccc(Oc2ccc(C(F)(F)F)cc2)cc1Cl` [IX-14] displayed a chromatographic logP in data set [2] (setting [12]) of 3.33. Moreover, the pest or weed control at 500 ppm in the data set with Puccinia recondita [6], in the data set with Septoria tritici [7], in the data set with Uromyces appendiculatus [8] and in the data set on Sphaerotheca fuliginea [9] was 90 to 100% each time.
`O=C(Cn1cncc1Cl)c1ccc(Oc2ccc(I)cc2)cc1Br` [IX-38] came in with a chromatographic logP in data set [2] (setting [12]) of 3.35. Besides, the pest or weed control at 500 ppm in the data set on Puccinia recondita [6], with Septoria tritici [7], with Uromyces appendiculatus [8] and in the data set on Sphaerotheca fuliginea [9] was 90 to 100% throughout.
In [2] (setting [12]), `O=C(Cn1cncc1F)c1cnc(Oc2ccc(Cl)cc2)cc1Br` [IX-93] came in with a chromatographic logP of 2.39. In addition, the pest or weed control at 500 ppm in the data set with Puccinia recondita [6] is 80 to 89%; in the data set with Septoria tritici [7], 90 to 100%; with Uromyces appendiculatus [8], 90 to 100%; in the data set on Sphaerotheca fuliginea [9], 90 to 100%.
Consider `N#Cc1cncn1CC(=O)c1ccc(Oc2ccc(I)cc2)cc1Cl` [IX-68], for which the chromatographic logP in data set [2] (setting [12]) worked out at 3.71. Besides, the pest or weed control at 500 ppm with Puccinia recondita [6], with Septoria tritici [7], in the data set on Uromyces appendiculatus [8] and with Sphaerotheca fuliginea [9] was 90 to 100% each time.
For the compound `O=C(Cn1cncc1Cl)c1ccc(Oc2ccc(Br)cc2)cc1Br` [IX-37], the chromatographic logP in data set [2] (setting [12]) was 3.22. In addition, the pest or weed control at 500 ppm was in the range of 80 to 89% in the data set with Puccinia recondita [6], 90 to 100% with Septoria tritici [7], 90 to 100% in the data set on Uromyces appendiculatus [8] and 90 to 100% with Sphaerotheca fuliginea [9].
`N#Cc1cncn1CC(=O)c1ccc(Oc2ccc(Cl)cc2)cc1Cl` [IX-31] had a chromatographic logP in [2] (setting [12]) of 3.46. The pest or weed control at 500 ppm in the data set with Puccinia recondita [6], in the data set on Septoria tritici [7], in the data set on Uromyces appendiculatus [8] and with Sphaerotheca fuliginea [9] was 90 to 100% each time.
